Assay results from article PMC10743086, “Immunofluorescence-Based Assay for High-Throughput Analysis of Multidrug Resistance Markers in Non-Small Cell Lung Carcinoma Patient-Derived Cells” (Diagnostics, 2023).

Key:
Format in all cases: cell-based, human
[1] = tested on: ABCC1 expression in non-cancer cells (CK8/18-); test: Immunofluorescence assay of ABCC1 expression in patient-derived NSCLC cultures, non-cancer cells; conditions: Table S2
Description: (§1) Tissue samples were collected during surgery, and the NSCLC diagnosis, histological grade, stage, necrosis, and lymph node invasion status were determined by histopathological analysis. […] The surgical specimens were placed in a sterile tube containing antibiotic-antimycotic solution (Sigma-Aldrich Chemie GmbH, Taufkirchen, Germany) and immediately transported to the research laboratory for further processing.
(§2) Upon arrival, the tissue was manually chopped with a surgical blade in a Petri dish under sterile conditions. The samples were cut into 3–5 mm pieces and further dissociated using the Tumor Dissociation Kit (Miltenyi Biotec, Bergisch Gladbach, Germany). The Tumor Dissociation Kit was used to dissociate the cells from the tumor tissue according to the manufacturer’s instructions. The samples were incubated in a 37 °C orbital shaker (KS 4000 ic control, IKA, Königswinter, Germany) at 300 rpm for 90 min. After incubation, the dissociated tissue was placed in DMEM/Ham’s F12 (1:3 ratio) growth medium supplemented with 5% fetal bovine serum (Corning, NY, USA), antibiotic-antimycotic solution, 4 µg/mL hydrocortisone (Sigma-Aldrich Chemie GmbH, Taufkirchen, Germany), 1 µg/mL insulin (Sigma-Aldrich Chemie GmbH, Taufkirchen, Germany), 10 ng/mL epidermal growth factor (BioLegend, San Diego, CA, USA), and 24 µg/mL adenine (Sigma-Aldrich Chemie GmbH, Taufkirchen, Germany). The DMEM and Ham’s F12 growth media were purchased from Sigma-Aldrich Chemie GmbH (Taufkirchen, Germany).
(§3) The dissociated tissue was cultured in T-25 cell culture flasks until cell attachment was observed before the medium was replaced. If no cell attachment was achieved within 7 days, the sample was discarded. Successful patient-derived cultures were maintained at 37 °C in a humidified atmosphere with 5% CO2 and grown to confluence before undergoing further experiments. […] Partial trypsinization was performed by detaching the fibroblast-like cells with 1 mL of 0.05% trypsin for 1 min at 37 °C, followed by 2 min at room temperature (RT).
(§4) Vinorelbine and pemetrexed were purchased from Selleckchem (Houston, TX, USA). Carboplatin, cisplatin, docetaxel, etoposide, gemcitabine, gefitinib, and paclitaxel were purchased from Sigma-Aldrich Chemie GmbH (Taufkirchen, Germany). The cisplatin, carboplatin, and gemcitabine were dissolved in sterile water, while the etoposide, docetaxel, vinorelbine, paclitaxel, gefitinib, and pemetrexed were dissolved in DMSO and stored at −20 °C. Before treatment, all the stock solutions were freshly diluted in sterile water.
(§5) The primary cells were seeded in black, clear bottom 384-well cell culture microplates (Thermo Fisher Scientific, Waltham, MA, USA) in 50 µL of cell growth medium at a density of 1000 cells per well. The compounds were administered 72 h after seeding. The treatment lasted 7 days.
(§6) The immunofluorescence assay for the quantification of MDR markers was optimized to distinguish cancer cells from stromal cells using a cytokeratin 8/18 (CK8/18) antibody cocktail. The cells were fixed with 4% paraformaldehyde for 20 min at RT and washed three times with PBS using the Wellwash Versa microplate washer (Thermo Fisher Scientific, Waltham, MA, USA). The cells were then blocked with 2% bovine serum albumin (BSA) in PBS for 1 h at RT. […] Co-immunostaining with antibodies against MDR markers was performed to detect the presence of ABCB1, ABCC1, and ABCG2 in both the cancer and stromal cells. […] The secondary antibodies were incubated with the cells at RT for 2 h in the dark. […] Finally, the cells were washed three times with PBS and stored at 4 °C in the dark before imaging.

[2] = tested on: ABCC1 expression in cancer cells (CK8/18+); test: Immunofluorescence assay of ABCC1 expression in patient-derived NSCLC cultures
Description: as §1, §2, §3, §4, §5, §6

NCI-H460 cells = test: Cytotoxicity by immunofluorescence cell scoring (cell counts), NSCLC cell line; conditions: 24 h treatment
Description: as §4
(§7) The compounds were administered 48 h after seeding. The treatment lasted 24 h.
as §6
(§8) The fluorescently labeled cells were imaged using the ImageXpress Pico Automated Cell Imaging System (Molecular Devices, San Jose, CA, USA) with a 4x objective after determining the appropriate exposure time for each illumination filter. Analysis of the obtained images was performed using CellReporterXpress software v. 2.8.2.669 (Molecular Devices). The cytotoxicity of the compounds was determined using the Cell Scoring Analysis Protocol. […] Expression of MDR markers was determined using the Multi-Wavelength Cell Scoring Analysis Protocol.

MRC-5 cells = test: Cytotoxicity by immunofluorescence cell scoring (cell counts), normal fibroblasts; conditions: 24 h treatment
Description: as §4, §7, §6, §8

[3] = tested on: ABCB1 expression in NCI-H460 cells; test: Immunofluorescence assay of MDR marker ABCB1 expression; conditions: five concentrations, 24 h
Description: as §4, §7, §6, §8

[4] = tested on: ABCB1 expression in MRC-5 cells; test: as above; conditions: five concentrations, 24 h
Description: as §4, §7, §6, §8

[5] = tested on: ABCB1 expression in NCI-H460/R cells; test: as above; conditions: five concentrations, 24 h
Description: as §4, §7, §6, §8

[6] = tested on: ABCB1 expression in cancer cells (CK8/18+); test: Immunofluorescence assay of ABCB1 expression in patient-derived NSCLC cultures; conditions: 7 days
Description: as §1, §2, §3, §4, §5, §6

NCI-H460/R cells = test: Cytotoxicity by immunofluorescence cell scoring (cell counts), multidrug-resistant NSCLC cell line; conditions: 24 h treatment
From the text: Human non-small cell lung carcinoma cells (NCI-H460) were purchased from the American Type Culture Collection (Rockville, MD, USA), and normal embryonic lung fibroblasts (MRC-5) were purchased from the European Collection of Authenticated Cell Cultures (Salisbury, UK). Multidrug-resistant NCI-H460/R cells overexpressing ABCB1 were selected from the NCI-H460 cells after selective pressure with doxorubicin [21]. All the cell lines were maintained in MEM medium (Sigma-Aldrich Chemie GmbH, Taufkirchen, Germany) supplemented with 10% FBS, 2 mM L-glutamine, and antibiotic-antimycotic solution. All the cell lines were maintained at 37 °C in a humidified atmosphere with 5% CO2.
as §4, §7, §6, §8

[7] = tested on: Non-cancer cells (CK8/18-) of patient-derived NSCLC cultures; test: Cytotoxicity in patient-derived NSCLC cultures, non-cancer cells; conditions: 7 days treatment
Description: as §1, §2, §3, §4, §5, §6

[8] = tested on: Cancer cells (CK8/18+) of patient-derived NSCLC cultures; test: Cytotoxicity in patient-derived NSCLC cultures, cancer cells; conditions: 7 days treatment
Description: as §1, §2, §3, §4, §5, §6

[9] = tested on: ABCG2 expression in cancer cells (CK8/18+); test: Immunofluorescence assay of ABCG2 expression in patient-derived NSCLC cultures; conditions: 7 days
Description: as §1, §2, §3, §4, §5, §6

[10] = culture TR58, non-cancer cells (CK8/18-)
[11] = culture TR64, non-cancer cells (CK8/18-)
[12] = culture TR65, non-cancer cells (CK8/18-)
[13] = culture TR84, non-cancer cells (CK8/18-)
[14] = culture TR87, non-cancer cells (CK8/18-)
[15] = NCI-H460 (co-culture with MRC-5)
[16] = MRC-5 (co-culture with NCI-H460)
[17] = MRC-5 (co-culture with NCI-H460/R)
[18] = NCI-H460/R (co-culture with MRC-5)
[19] = culture TR58, cancer cells (CK8/18+)
[20] = culture TR64, cancer cells (CK8/18+)
[21] = culture TR65, cancer cells (CK8/18+)
[22] = culture TR84, cancer cells (CK8/18+)
[23] = culture TR87, cancer cells (CK8/18+)

## COc1cc2ncnc(Nc3ccc(F)c(Cl)c3)c2cc1OCCCN1CCOCC1 [gefitinib]
[1]; [10]
  ABCC1 expression: no change
[1]; [11]
  ABCC1 expression: no change
[1]; [12]
  ABCC1 expression: no change
[1]; [13]
  ABCC1 expression: no change
[1]; [14]
  ABCC1 expression: no change
[2]; culture TR58, cancer cells (CK8/18+), Table S2
  ABCC1 expression: no change
[2]; culture TR64, cancer cells (CK8/18+), Table S2
  ABCC1 expression: no change
[2]; culture TR65, cancer cells (CK8/18+), Table S2
  ABCC1 expression: increase (an increase in ABCC1 expression of at least 20% at a minimum of one concentration is shown in the Table.)
[2]; culture TR84, cancer cells (CK8/18+), Table S2
  ABCC1 expression: increase (an increase in ABCC1 expression of at least 20% at a minimum of one concentration is shown in the Table.)
[2]; culture TR87, cancer cells (CK8/18+), Table S2
  ABCC1 expression: no change

## N.N.O=C([O-])C1(C(=O)[O-])CCC1.[Pt+2] [Carboplatin]
NCI-H460 cells; [15]
  IC50: > 100 µM
NCI-H460 cells; NCI-H460 monoculture
  IC50: > 100 µM
MRC-5 cells; [16]
  IC50: > 100 µM
MRC-5 cells; [17]
  IC50: > 100 µM
MRC-5 cells; MRC-5 monoculture
  IC50: > 100 µM
[3]; [15]
  ABCB1 Expression: no change
[3]; NCI-H460 monoculture
  ABCB1 Expression: no change
[4]; [16]
  ABCB1 Expression: no change
[4]; [17]
  ABCB1 Expression: no change
[4]; MRC-5 monoculture
  ABCB1 Expression: no change
[5]; [18]
  ABCB1 Expression: no change
[5]; NCI-H460/R monoculture
  ABCB1 Expression: no change
[6]; [19]
  ABCB1 Expression: no change
[6]; [20]
  ABCB1 Expression: increase (An increase in ABCB1, ABCC1, or ABCG2 expression of at least 20% at a minimum of one concentration is shown in the table.)
[6]; [21]
  ABCB1 Expression: increase (An increase in ABCB1, ABCC1, or ABCG2 expression of at least 20% at a minimum of one concentration is shown in the table.)
[6]; [22]
  ABCB1 Expression: increase (An increase in ABCB1, ABCC1, or ABCG2 expression of at least 20% at a minimum of one concentration is shown in the table.)
[6]; [23]
  ABCB1 Expression: increase (An increase in ABCB1, ABCC1, or ABCG2 expression of at least 20% at a minimum of one concentration is shown in the table.)
NCI-H460/R cells; [18]
  IC50: > 100 µM
NCI-H460/R cells; NCI-H460/R monoculture
  IC50: > 100 µM
[7]; [10]
  IC50: 27.3 µM
[7]; [11]
  IC50: 12.8 µM
[7]; [12]
  IC50: 2.16 µM
[7]; [13]
  IC50: 1.28 µM
[7]; [14]
  IC50: 22.9 µM
[8]; [19]
  IC50: 60.8 µM
[8]; [20]
  IC50: 39 µM
[8]; [21]
  IC50: 22.5 µM
[8]; [22]
  IC50: 8.15 µM
[8]; [23]
  IC50: 43.3 µM
[2]; culture TR58, cancer cells (CK8/18+), 7 days
  ABCC1 expression: no change
[2]; culture TR64, cancer cells (CK8/18+), 7 days
  ABCC1 expression: increase (An increase in ABCB1, ABCC1, or ABCG2 expression of at least 20% at a minimum of one concentration is shown in the table.)
[2]; culture TR65, cancer cells (CK8/18+), 7 days
  ABCC1 expression: increase (An increase in ABCB1, ABCC1, or ABCG2 expression of at least 20% at a minimum of one concentration is shown in the table.)
[2]; culture TR84, cancer cells (CK8/18+), 7 days
  ABCC1 expression: increase (An increase in ABCB1, ABCC1, or ABCG2 expression of at least 20% at a minimum of one concentration is shown in the table.)
[2]; culture TR87, cancer cells (CK8/18+), 7 days
  ABCC1 expression: increase (An increase in ABCB1, ABCC1, or ABCG2 expression of at least 20% at a minimum of one concentration is shown in the table.)
[9]; [19]
  ABCG2 expression: increase (An increase in ABCB1, ABCC1, or ABCG2 expression of at least 20% at a minimum of one concentration is shown in the table.)
[9]; [20]
  ABCG2 expression: increase (An increase in ABCB1, ABCC1, or ABCG2 expression of at least 20% at a minimum of one concentration is shown in the table.)
[9]; [21]
  ABCG2 expression: increase (An increase in ABCB1, ABCC1, or ABCG2 expression of at least 20% at a minimum of one concentration is shown in the table.)
[9]; [22]
  ABCG2 expression: increase (An increase in ABCB1, ABCC1, or ABCG2 expression of at least 20% at a minimum of one concentration is shown in the table.)
[9]; [23]
  ABCG2 expression: increase (An increase in ABCB1, ABCC1, or ABCG2 expression of at least 20% at a minimum of one concentration is shown in the table.)
